# Measurements as given in patent US4086219A, “Nonapeptides and methods for their production” (Parke, Davis & Company, priority 1976, dated 1978).
# “And” between values parts separate entries of the source, which are not always exact repeats. Identical values can stand only once. Square brackets hold non-standard residues; d marks the D form. Peptide text beside a SMILES is read from it. * marks the point of attachment. X1 = COc1ccc(COC(=O)*)cc1; Cbz = O=C(OCc1ccccc1)*; Boc = CC(C)(C)OC(=O)*; Bn = c1ccc(C*)cc1
# Tested on: LRF-induced luteinizing hormone (LH) release
# Experiment: In vitro LRF antagonist test in rat anterior pituitary cell cultures
# Format: cell-based
# Experimental: Nonapeptides of this invention are screened for LRF antagonist activity in vitro using rat anterior pituitary cell cultures as described by Vale et al. [Endocrinology, 91, 562 (1972)]. The inhibition of LRF-induced luteinizing hormone (LH) release into the culture medium is the endpoint in this in vitro bioassay. Active peptides are then tested in vivo by the procedures of Humphrey et al. [Endocrinology, 92, 1515 (1972)]. Antagonist activity is asessed by the inhibition of LRF-induced LH release in the female rat and LRF-induced ovulation in the rabbit.
# [1] = Molar Conc. 1 × 10^-5, LRF 5 × 10^-10, first series (LRF Control 71.56)
# [2] = Molar Conc. 1 × 10^-6, LRF 5 × 10^-10, first series (LRF Control 71.56)
# [3] = Molar Conc. 1 × 10^-7, LRF 5 × 10^-10, first series (LRF Control 71.56)
# [4] = Molar Conc. 1 × 10^-8, LRF 5 × 10^-10, first series (LRF Control 71.56)
# [5] = Molar Conc. 1 × 10^-8, LRF 5 × 10^-10, second series of the compound
# [6] = Molar Conc. 1 × 10^-9, LRF 5 × 10^-10, second series of the compound
# [7] = Molar Conc. 2.5 × 10^-9, LRF 5 × 10^-10, second series of the compound
# [8] = Molar Conc. 5 × 10^-9, LRF 5 × 10^-10, second series of the compound
# [9] = Molar Conc. 1 × 10^-8, LRF 3.5 × 10^-10
# [10] = Molar Conc. 1 × 10^-9, LRF 3.5 × 10^-10
# [11] = Molar Conc. 2.5 × 10^-8, LRF 3.5 × 10^-10
# [12] = Molar Conc. 2.5 × 10^-9, LRF 3.5 × 10^-10
# [13] = Molar Conc. 2.5 × 10^-10, LRF 3.5 × 10^-10
# [14] = Molar Conc. 6 × 10^-8, LRF 3.5 × 10^-10
# [15] = Molar Conc. 6 × 10^-9, LRF 3.5 × 10^-10
# [16] = Molar Conc. 6 × 10^-10, LRF 3.5 × 10^-10
# [17] = Molar Conc. 1.2 × 10^-8, LRF 3.5 × 10^-10
# [18] = Molar Conc. 2 × 10^-8, LRF 3.5 × 10^-10
# [19] = Molar Conc. 2 × 10^-9, LRF 3.5 × 10^-10
# [20] = Molar Conc. 4 × 10^-8, LRF 3.5 × 10^-10
# [21] = Molar Conc. 4 × 10^-9, LRF 3.5 × 10^-10
# [22] = Molar Conc. 7 × 10^-8, LRF 3.5 × 10^-10
# [23] = Molar Conc. 7 × 10^-9, LRF 3.5 × 10^-10
# [24] = Molar Conc. 1 × 10^-10, LRF 3.5 × 10^-10
# [25] = Molar Conc. 2 × 10^-10, LRF 3.5 × 10^-10
# [26] = Molar Conc. 3.5 × 10^-9, LRF 3.5 × 10^-10
# [27] = Molar Conc. 3.5 × 10^-10, LRF 3.5 × 10^-10
# [28] = Molar Conc. 2.5 × 10^-10, LRF 5 × 10^-10, second series of the compound
# [29] = Molar Conc. 5 × 10^-10, LRF 5 × 10^-10, second series of the compound
molecule,measurement,setting,value
CC[C@H](C)[C@H](NC(=O)OCc1ccccc1)C(=O)N[C@@H](Cc1c[nH]c2ccccc12)C(=O)N[C@@H](CO)C(=O)N[C@@H](Cc1ccc(O)cc1)C(=O)N[C@H](Cc1c[nH]c2ccccc12)C(=O)N[C@@H](CC(C)C)C(=O)N[C@@H](CCCNC(=N)N)C(=O)N1CCC[C@H]1C(=O)NCC(N)=O [N^α -Benzyloxycarbonyl-L-isoleucyl-L-tryptophyl-L-seryl-L-tyrosyl-D-tryptophyl-L-leucyl-L-arginyl-L-prolyl-glycinamide] (Cbz-IWSY[dW]LRPG-NH2),% LH Release Inhibition,[1],96%
same,LH Value,[1],20.69 ng/mL
same,% LH Release Inhibition,[2],96%
same,LH Value,[2],20.24 ng/mL
same,% LH Release Inhibition,[3],96%
same,LH Value,[3],20.50 ng/mL
same,% LH Release Inhibition,[4],95%
same,LH Value,[4],21.04 ng/mL
same,% LH Release Inhibition,[5],98%
same,LH Value,[5],14.00 ng/mL
same,% LH Release Inhibition,[6],41%
same,LH Value,[6],36.46 ng/mL
same,% LH Release Inhibition,[7],70%
same,LH Value,[7],24.96 ng/mL
same,% LH Release Inhibition,[8],87%
same,LH Value,[8],18.49 ng/mL
CC(C)C[C@H](NC(=O)[C@@H](Cc1c[nH]c2ccccc12)NC(=O)[C@H](Cc1ccc(O)cc1)NC(=O)[C@H](CO)NC(=O)[C@H](Cc1c[nH]c2ccccc12)NC(=O)[C@H](COCc1ccccc1)NC(=O)OC(C)(C)C)C(=O)N[C@@H](CCCNC(=N)N)C(=O)N1CCC[C@H]1C(=O)NCC(N)=O [N^α -t-Butoxycarbonyl-O-benzyl-L-seryl-L-tryptophyl-L-seryl-L-tyrosyl-D-tryptophyl-L-leucyl-L-arginyl-L-prolyl-glycinamide] (Boc-S(Bn)WSY[dW]LRPG-NH2),% LH Release Inhibition,[9],104%
same,LH Value,[9],8.96 ng/mL
same,% LH Release Inhibition,[10],64%
same,LH Value,[10],21.44 ng/mL
same,% LH Release Inhibition,[11],104%
same,LH Value,[11],8.95 ng/mL
same,% LH Release Inhibition,[12],72%
same,LH Value,[12],18.85 ng/mL
same,% LH Release Inhibition,[13],39%
same,LH Value,[13],29.05 ng/mL
same,% LH Release Inhibition,[14],108%
same,LH Value,[14],7.80 ng/mL
same,% LH Release Inhibition,[15],99%
same,LH Value,[15],10.64 ng/mL
same,% LH Release Inhibition,[16],50%
same,LH Value,[16],25.53 ng/mL
"LRF: luteinizing hormone releasing factor, also called luteinizing hormone releasing hormone (LH-RH); stimulates secretion of luteinizing hormone from the anterior pituitary (QHWSYGLRPG; Gonadoliberin-1; UniProt P01148 24-33, looked up) [reference compound]",LH Value,"LRF alone, Molar Conc. 3.5 × 10^-10 (control of each series)",26.23 ng/mL and 40.92 ng/mL and 32.11 ng/mL
same,LH Value,"LRF alone, Molar Conc. 5 × 10^-10 (control of each series)",71.56 ng/mL and 47.31 ng/mL and 52.80 ng/mL
CC(C)C[C@H](NC(=O)[C@@H](Cc1ccccc1)NC(=O)[C@H](Cc1ccc(O)cc1)NC(=O)[C@H](CO)NC(=O)[C@H](Cc1c[nH]c2ccccc12)NC(=O)[C@H](CCC(N)=O)NC(=O)OCc1ccccc1)C(=O)N[C@@H](CCCNC(=N)N)C(=O)N1CCC[C@H]1C(=O)NCC(N)=O [N^α -Benzyloxycarbonyl-L-glutaminyl-L-tryptophyl-L-seryl-L-tyrosyl-D-phenylalanyl-L-leucyl-L-arginyl-L-prolyl-glycinamide] (Cbz-QWSY[dF]LRPG-NH2),% LH Release Inhibition,[17],71%
same,LH Value,[17],13.47 ng/mL
same,% LH Release Inhibition,[18],90%
same,LH Value,[18],10.07 ng/mL
same,% LH Release Inhibition,[19],21%
same,LH Value,[19],22.43 ng/mL
same,% LH Release Inhibition,[20],91%
same,LH Value,[20],9.79 ng/mL
same,% LH Release Inhibition,[21],30%
same,LH Value,[21],20.76 ng/mL
same,% LH Release Inhibition,[22],93%
same,LH Value,[22],9.49 ng/mL
same,% LH Release Inhibition,[23],42%
same,LH Value,[23],18.60 ng/mL
CC(C)C[C@H](NC(=O)[C@@H](Cc1ccccc1)NC(=O)[C@H](Cc1ccc(O)cc1)NC(=O)[C@H](CO)NC(=O)[C@H](Cc1c[nH]c2ccccc12)NC(=O)[C@H](COCc1ccccc1)NC(=O)OCc1ccccc1)C(=O)N[C@@H](CCCNC(=N)N)C(=O)N1CCC[C@H]1C(=O)NCC(N)=O.Cl [N^α -Benzyloxycarbonyl-O-benzyl-L-seryl-L-tryptophyl-L-seryl-L-tyrosyl-D-phenylalanyl-L-leucyl-L-arginyl-L-prolyl-glycinamide hydrochloride] (Cbz-S(Bn)WSY[dF]LRPG-NH2),% LH Release Inhibition,[10],56%
same,LH Value,[10],17.85 ng/mL
same,% LH Release Inhibition,[24],0%
same,LH Value,[24],34.50 ng/mL
same,% LH Release Inhibition,[19],88%
same,LH Value,[19],9.84 ng/mL
same,% LH Release Inhibition,[25],14%
same,LH Value,[25],28.47 ng/mL
same,% LH Release Inhibition,[26],99%
same,LH Value,[26],6.96 ng/mL
same,% LH Release Inhibition,[27],36%
same,LH Value,[27],23.09 ng/mL
same,% LH Release Inhibition,[15],109%
same,LH Value,[15],4.59 ng/mL
same,% LH Release Inhibition,[16],52%
same,LH Value,[16],18.89 ng/mL
COc1ccc(COC(=O)N[C@@H](COCc2ccccc2)C(=O)N[C@@H](Cc2c[nH]c3ccccc23)C(=O)N[C@@H](CO)C(=O)N[C@@H](Cc2ccc(O)cc2)C(=O)N[C@H](Cc2ccccc2)C(=O)N[C@@H](CC(C)C)C(=O)N[C@@H](CCCNC(=N)N)C(=O)N2CCC[C@H]2C(=O)NCC(N)=O)cc1.Cl [N^α -p-Methoxybenzyloxycarbonyl-O-benzyl-L-seryl-L-tryptophyl-L-seryl-L-tyrosyl-D-phenylalanyl-L-leucyl-L-arginyl-L-prolyl-glycinamide hydrochloride] (X1-S(Bn)WSY[dF]LRPG-NH2),% LH Release Inhibition,[3],99%
same,LH Value,[3],18.59 ng/mL
same,% LH Release Inhibition,[4],105%
same,LH Value,[4],15.95 ng/mL
same,% LH Release Inhibition,[5],88%
same,LH Value,[5],16.01 ng/mL
same,% LH Release Inhibition,[6],41%
same,LH Value,[6],32.94 ng/mL
same,% LH Release Inhibition,[28],35%
same,LH Value,[28],34.87 ng/mL
same,% LH Release Inhibition,[29],52%
same,LH Value,[29],28.95 ng/mL
